{"source": "paper PMC9410537", "about": "“Discovery of Ircinianin Lactones B and C—Two New Cyclic Sesterterpenes from the Marine Sponge Ircinia wistarii” (Marine Drugs, 2022)", "key": {"[1]": {"system": "L-6 cells (rat skeletal myoblasts)", "assay": "In vitro cytotoxicity assay with L-6 cells (resazurin)", "format": "cell-based", "details": "L6, 70 h, read-out: IC50 L6", "experimental": "In vitro cytotoxicity assay with L-6 cells. Assays were performed in 96-well microtiter plates, each well containing 100 μL of RPMI 1640 medium supplemented with 1% L-glutamine (200 mM) and 10% fetal bovine serum, and 4000 L-6 cells (a primary cell line derived from rat skeletal myoblasts). Serial drug dilutions ranged from 100 to 0.002 μg/mL. After 70 h of incubation, the plates were inspected under an inverted microscope to assure growth of the controls and sterile conditions. 10 μL of resazurin was then added to each well and the plates were incubated for another 2 h. […] Podophyllotoxin (Sigma P4405) was used as control (IC50 0.011 ± 0.005 μM)."}, "[2]": {"system": "T. cruzi Tulahuen strain C2C4", "assay": "Activity against T. cruzi in L-6 cells (beta-galactosidase/CPRG)", "format": "cell-based, Trypanosoma cruzi", "details": "Tulahuen C2C4 in L-6 cells, Table 2 values are means of two independent assays", "experimental": "Activity against T. cruzi. Rat skeletal myoblasts (L-6 cells) were seeded in 96-well microtiter plates at 2000 cells/well in 100 μL RPMI 1640 medium with 10% FBS and 2 mM L-glutamine. After 24 h, the media in each well was removed and replaced with 100 μL of fresh media containing 5000 trypomastigote forms of T. cruzi Tulahuen strain C2C4 containing the β-galactosidase (lacZ) gene. After 48 h, the media was removed from the wells again, and this time, replaced by 100 μL fresh medium with or without 1 from 100 to 0.002 μg/mL. After 96 h of incubation, the plates were inspected under an inverted microscope to assess growth and sterility of the controls. Then, the substrate CPRG/Nonidet (50 μL) was added to all wells. A color reaction developed within 2–6 h and could be read photometrically at 540 nm."}, "[3]": {"system": "P. falciparum NF54 strain", "assay": "In vitro activity against erythrocytic stages of P. falciparum (3H-hypoxanthine incorporation assay)", "format": "cell-based", "details": "Plasmodium falciparum, Table 2 values are means of two independent assays", "experimental": "Activity against P. falciparum. In vitro activity against erythrocytic stages of P. falciparum was determined using a ^3H-hypoxanthine incorporation assay against the drug-sensitive NF54 strain [76]. Compounds were dissolved in DMSO at 10 mg/mL and further diluted in medium before being added to parasite cultures incubated in RPMI 1640 medium without hypoxanthine, supplemented with HEPES (5.94 g/L), NaHCO3 (2.1 g/L), neomycin (100 U/mL), Albumax^R (5 g/L) and washed human red cells A^+ at 2.5% haematocrit (0.3% parasitaemia). Serial drug dilutions ranged from 100 to 0.002 μg/mL. The 96-well plates were incubated in a humidified atmosphere at 37 °C; 4% CO2, 3% O2, 93% N2. After 48 h 50 μL of ^3H-hypoxanthine (=0.5 μCi) was added to each well of the plate. The plates were incubated for a further 24 h under the same conditions. The plates were then harvested with a Betaplate™ cell harvester (Wallac, Zurich, Switzerland) and the red blood cells were transferred onto a glass fiber filter then washed with distilled water. The dried filters were inserted into a plastic foil with 10 mL of scintillation fluid and counted in a Betaplate™ liquid scintillation counter (Wallac, Zurich, Switzerland). IC50 values were calculated from sigmoidal inhibition curves by linear regression using Microsoft Excel. Chloroquine diphosphate (Sigma C6628) was used as control (IC50 0.006 ± 0.002 μM)."}, "[4]": {"assay": "Observed stability of the isolated compounds", "format": "physicochemical", "source_text": "The shift values of the terminal heterocycle were in very good agreement with literature data from similar natural products, bearing a γ-hydroxy-γ-butenolide moiety. Analogous to compound 7, the Δ^8,10 double bond of 8 was defined as E (C-9: δC 16.2 and NOESY cross correlations depicted in Figure 4). Likewise, based on the same observed diagnostic NOE crosspeaks for the indene system (Figure S43B) and for biogenetic reasons, we propose that 8 is 11R*, 15R*, 18S*, 20R*, 21S* configured. […] Therefore, we integrated computational methods and aimed for quantum-mechanical predictions of ^1H and ^13C NMR chemical shifts of a 1S- and a 1R-configured version of 8.\nAll tests were performed with 1 as a pre-screening for the scaffold’s activity within their respective assays. Based on the results from the pre-screening, the biological evaluation of the structural congeners was planned. Unfortunately, an instability phenomenon affected the purity of the isolated compounds. Due to the limited amounts of the isolated compounds, repurification would not have yielded the required sample quantity for the assays. This reality precluded biological evaluation of the structural congeners 3–8."}, "[5]": {"system": "Trypanosoma brucei rhodesiense STIB900", "assay": "Activity against Trypanosoma brucei rhodesiense STIB900 (resazurin)", "details": "Table 2 values are means of two independent assays", "description": "Activity against Trypanosoma brucei rhodesiense STIB900. […] Minimum Essential Medium (50 µL) supplemented with 25 mM HEPES, 1 g/L additional glucose, 1% MEM non-essential amino acids (100×), 0.2 mM 2-mercaptoethanol, 1 mM Na-pyruvate and 15% heat inactivated horse serum was added to each well of a 96-well microtiter plate. Serial drug dilutions ranging from 100 to 0.002 μg/mL were prepared. Then, 4 × 10^3 bloodstream forms of T. b. rhodesiense STIB 900 in 50 µL were added to each well and the plate was incubated at 37 °C under a 5% CO2 atmosphere for 70 h. 10 µL of a resazurin solution (resazurin, 12.5 mg in 100 mL double-distilled water) was then added to each well and incubation continued for a further 2–4 h [70]. The plates were read with a Spectramax Gemini XS microplate fluorometer (Molecular Devices Cooperation, Sunnyvale, CA, USA) using an excitation wavelength of 536 nm and an emission wavelength of 588 nm. Data were analyzed using Softmax Pro (Molecular Devices Cooperation, Sunnyvale, CA, USA), which calculated IC50 values by linear regression [71] and 4-parameter logistic regression from the sigmoidal dose inhibition curves."}, "[6]": {"system": "L. donovani strain MHOM/ET/67/L82 axenic amastigotes", "assay": "Activity against L. donovani axenic amastigotes (resazurin)", "format": "cell-based, Leishmania donovani", "details": "in vitro, Table 2 values are means of two independent assays", "experimental": "Activity against L. donovani axenic amastigotes. Amastigotes of L. donovani strain MHOM/ET/67/L82 were grown in axenic culture at 37 °C in SM medium at pH 5.4 supplemented with 10% heat-inactivated fetal bovine serum under an atmosphere of 5% CO2 in air. 100 µL of culture medium with 10^5 amastigotes from axenic culture with or without a serial drug dilution were seeded in 96-well microtiter plates. Serial drug dilutions ranged from 100 to 0.002 μg/mL. After 70 h of incubation, the plates were inspected under an inverted microscope to assure growth of the controls and sterile conditions."}}, "note": "Read-outs that look alike come from different tables or passages of the source.", "data": [{"compound": "COc1cc([C@@H]2c3cc4c(cc3[C@H](O)[C@H]3COC(=O)[C@H]23)OCO4)cc(OC)c1OC", "note": "[Podophyllotoxin, reference compound]", "values": [{"measurement": "IC50", "setting": "[1]", "value": "11 ± 5", "unit": "nM"}]}, {"compound": "O=C(Cn1ccnc1[N+](=O)[O-])NCc1ccccc1", "note": "[benznidazole, Benznidazole, reference compound]", "values": [{"measurement": "IC50", "setting": "[2]; Trypanosoma cruzi, TULAHUEN, L6, in vitro", "value": "2310 ± 1150", "unit": "nM"}, {"measurement": "IC50", "setting": "[2]; in vitro", "value": 3360, "unit": "nM"}]}, {"compound": "CCN(CC)CCCC(C)Nc1ccnc2cc(Cl)ccc12", "note": "(stereo not drawn) [chloroquine, Chloroquine diphosphate, reference compound]", "values": [{"measurement": "IC50", "setting": "[3]", "value": 6, "unit": "nM"}]}, {"compound": "CC(=CC1C=C(C)C2CCC(C)C2C12OC(=O)C(C)=C2O)CCCC1=CC(=O)OC1O", "note": "(stereo not drawn) [compound 8, Ircinianin lactone C]", "values": [{"measurement": "Stability of isolated compound", "setting": "[4]; rapid decomposition after the NMR measurements", "value": "unstable"}]}, {"compound": "Nc1nc(N)nc(Nc2ccc([As]3SCC(CO)S3)cc2)n1", "note": "(stereo not drawn) [melarsoprol, Melarsoprol, reference compound]", "values": [{"measurement": "IC50", "setting": "[5]; Trypanosoma brucei, RHODESIENSE|STIB900, read-out: IC50 T. brucei rhodesiense, in vitro, STIB900 bloodstream forms", "value": "13 ± 6", "unit": "nM"}, {"measurement": "IC50", "setting": "[5]; read-out: IC50 T. brucei rhodesiense, in vitro, STIB900 bloodstream forms", "value": 20, "unit": "nM"}]}, {"compound": "CCCCCCCCCCCCCCCCOP(=O)([O-])OCC[N+](C)(C)C", "note": "[miltefosine, Miltefosine]", "values": [{"measurement": "IC50", "setting": "[6]; Leishmania donovani", "value": "650 ± 270", "unit": "nM"}, {"measurement": "IC50", "setting": "[6]", "value": 486, "unit": "nM"}]}, {"compound": "Ircinianin lactone A [compound 6]", "values": [{"measurement": "Stability of isolated compound", "setting": "[4]", "value": "unstable"}]}, {"compound": "Ircinianin lactone B [compound 7]", "values": [{"measurement": "Stability of isolated compound", "setting": "[4]", "value": "unstable"}]}, {"compound": "Oxoircinianin [compound 3]", "values": [{"measurement": "Stability of isolated compound", "setting": "[4]", "value": "unstable"}]}]}
